The subject of assay [1] is Scenedesmus acutus. Nature of the assay: Phytotoxic activity against Scenedesmus acutus assessed as zeta-carotene accumulation. The format is functional, organism-based.
A further assay has as its system Echinochloa crus-galli. Kind of assay: Herbicidal activity against Echinochloa crus-galli (barnyard grass) assessed as damage of seedlings. The format is functional.
Assay [2] deals with Scenedesmus acutus. Kind of assay: Phytotoxic activity against Scenedesmus acutus assessed as phytoene accumulation. The format is functional, organism-based.

Active and inactive are the calls of the source. The rule behind the calls is not given here.

With `COc1ccc(C(=O)c2cccc(C)c2)cc1C`, in the assay on Scenedesmus acutus [1], the outcome was Active. Take `CC(Cl)/C=C/C(=O)N(Cc1ccc(C(F)(F)F)cc1)CC(C)C` (stereo unspecified): the ED90 in the assay with Echinochloa crus-galli is reported as 31 gAi/ha. On the same count and under the same terms, the value for `CC(Cl)/C=C/C(=O)N(Cc1ccc(Cl)cc1)CC(C)C` (stereo unspecified) was 16 gAi/ha; that for `CC(Cl)/C=C/C(=O)N(Cc1ccc(S(C)(=O)=O)cc1)CC(C)C` (stereo unspecified) was over 1000 gAi/ha. Consider `CNc1cnn(-c2cccc(C(F)(F)F)c2)c(=O)c1Cl`, for which, in the assay on Scenedesmus acutus [2], the result was Active. Turning to `CC(Cl)/C=C/C(=O)N(Cc1ccc(C#N)cc1)CC(C)C` (stereo unspecified), the ED90 in the assay on Echinochloa crus-galli is given as 16 gAi/ha.

These data come from ChEMBL document CHEMBL3044816, “Mode of Action of Herbicidal N-Benzyl-4-chloro-N-isobutyl-2-pentenamides” (J Pestic Sci, 2002).
